From patent publication US20110195900A1, “PEPTIDIC PTH RECEPTOR AGONISTS” (FERRING B.V., priority 2008, published 2011)
Like-named read-outs stand apart in the source and are kept apart here. Non-standard residues stand in square brackets, D forms with d. Residues, ends and D or L forms follow the SMILES beside them. 1Nal = N[C@@H](Cc1cccc2ccccc12)C(=O)O; 2Nal = N[C@@H](Cc1ccc2ccccc2c1)C(=O)O; β3hI = CC[C@H](C)[C@H](N)CC(=O)O; hSer = N[C@@H](CCO)C(=O)O; Nle = CCCC[C@H](N)C(=O)O; β3hA = C[C@H](N)CC(=O)O; Aib = CC(C)(N)C(=O)O; βAla = NCCC(=O)O

Molecular target: T1, human PTH-1 receptor (Homo sapiens, UniProt Q03431)
T1 construct: expressed in transfected cells; host or cells: HEK-293
T1 sequence (Q03431 27-593): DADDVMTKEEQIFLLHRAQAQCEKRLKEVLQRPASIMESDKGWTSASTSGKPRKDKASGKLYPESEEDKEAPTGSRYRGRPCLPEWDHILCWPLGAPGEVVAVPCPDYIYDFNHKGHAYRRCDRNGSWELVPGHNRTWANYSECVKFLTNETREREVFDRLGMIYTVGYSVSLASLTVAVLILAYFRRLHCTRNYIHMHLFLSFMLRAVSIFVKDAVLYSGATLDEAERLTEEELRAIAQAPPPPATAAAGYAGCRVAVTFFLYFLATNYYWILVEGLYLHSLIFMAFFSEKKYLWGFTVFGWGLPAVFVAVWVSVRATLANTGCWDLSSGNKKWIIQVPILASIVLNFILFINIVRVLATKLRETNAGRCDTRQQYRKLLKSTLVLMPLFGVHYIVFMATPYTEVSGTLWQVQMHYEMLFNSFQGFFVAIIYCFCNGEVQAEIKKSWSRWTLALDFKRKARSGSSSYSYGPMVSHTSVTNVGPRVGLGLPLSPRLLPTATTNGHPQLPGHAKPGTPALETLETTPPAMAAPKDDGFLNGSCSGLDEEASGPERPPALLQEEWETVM
Test: Reporter gene assay (CRE-luciferase) for agonist activity in transiently transfected HEK-293 cells
Assay type: cell-based
Conditions: for hPTHR-2/hPTHR-1 / Selectivity hPTHR-2/hPTHR-1: ratio of EC50 values; for hPTHR-2/hPTHR-1: selectivity for hPTH-1 receptor over hPTH-2 receptor
Procedure: Agonist activity of compounds on the human PTH-1 receptor was determined in a reporter gene assay by transiently transfecting HEK-293 cells with plasmids encoding human PTH-1 receptor under control of the SV40 promoter and a luciferase reporter gene under control of cAMP responsive elements (CRE). See Himmler et al, J. Recept. Res. 13 (1993) 79-94, for further guidance on this assay. Transfected cells were exposed to serial dilutions of compounds for 4-5 hours followed by lysis of cells, determination of luciferase activity, and determination of compound efficacies and EC50 values through non-linear regression.
PTH (1-34) was used as an internal control in each experiment and compounds were tested in at least three independent experiments. To determine selectivity, compounds were tested in luciferase-based transcriptional reporter gene assays expressing the human PTH-2 receptor.

[1] = Table 3, HEK-293 cells, CRE-luciferase, 4-5 hours exposure, read-out: hPTHR-1 EC50

`CCCC[C@H](NC(=O)CCNC(=O)[C@H](CC(N)=O)NC(=O)[C@H](CC(C)C)NC(=O)[C@H](Cc1c[nH]cn1)NC(=O)[C@H](CCCCN)NC(=O)CNC(=O)[C@H](CC(C)C)NC(=O)[C@H](CC(N)=O)NC(=O)[C@H](Cc1c[nH]cn1)NC(=O)[C@H](CCCC)NC(=O)[C@H](CC(C)C)NC(=O)[C@H](CCC(N)=O)NC(=O)[C@@H](NC(=O)[C@H](CCC(=O)O)NC(=O)[C@H](CO)NC(=O)[C@@H](NC(=O)[C@H](C)N)C(C)C)[C@@H](C)CC)C(=O)N[C@@H](CCC(=O)O)C(=O)N[C@@H](CCCNC(=N)N)C(=O)N[C@H](C(=O)N[C@@H](CCC(=O)O)C(=O)N[C@@H](Cc1ccc2ccccc2c1)C(=O)N[C@@H](CC(C)C)C(=O)N[C@@H](CCCNC(=N)N)C(=O)N[C@@H](CCCCN)C(=O)N[C@@H](CCCCN)C(=O)N[C@@H](CC(C)C)C(=O)N[C@@H](CCC(N)=O)C(=O)N[C@@H](CC(=O)O)C(=O)N[C@H](C(=O)N[C@@H](Cc1c[nH]cn1)C(=O)N[C@@H](CC(N)=O)C(=O)N[C@@H](Cc1ccccc1)C(N)=O)C(C)C)C(C)C` [SEQ ID NO: 12, [Ala^1, Nle^8,18, β-Ala^17,2-Nal^23] hPTH (1-34)-NH2] (H-AVSEIQL[Nle]HNLGKHLN[βAla][Nle]ERVE[2Nal]LRKKLQDVHNF-NH2) was tested, and the EC50 [1] was 0.22 nM and the hPTHR-2/hPTHR-1 (Table 3) was 430.
For `CCCC[C@H](NC(=O)[C@H](CC(C)C)NC(=O)[C@H](CCC(N)=O)NC(=O)[C@@H](NC(=O)[C@H](CCC(=O)O)NC(=O)[C@H](CO)NC(=O)[C@@H](NC(=O)[C@@H](N)CO)C(C)C)[C@@H](C)CC)C(=O)N[C@@H](Cc1c[nH]cn1)C(=O)N[C@@H](CC(N)=O)C(=O)N[C@@H](CC(C)C)C(=O)NCC(=O)N[C@@H](CCCCN)C(=O)N[C@@H](Cc1c[nH]cn1)C(=O)N[C@@H](CC(C)C)C(=O)N[C@@H](CC(N)=O)C(=O)N[C@@H](CO)C(=O)N[C@H](CC(=O)N[C@@H](CCC(=O)O)C(=O)N[C@@H](CCCNC(=N)N)C(=O)N[C@H](C(=O)N[C@@H](CCC(=O)O)C(=O)N[C@@H](Cc1cccc2ccccc12)C(=O)N[C@@H](CC(C)C)C(=O)N[C@@H](CCCNC(=N)N)C(=O)N[C@@H](CCCCN)C(=O)N[C@@H](CCCCN)C(=O)N[C@@H](CC(C)C)C(=O)N[C@@H](CCC(N)=O)C(=O)N[C@@H](CC(=O)O)C(=O)N[C@H](C(=O)N[C@@H](Cc1c[nH]cn1)C(=O)N[C@@H](CC(N)=O)C(=O)N[C@@H](Cc1ccccc1)C(=O)O)C(C)C)C(C)C)[C@@H](C)CC` [SEQ ID NO: 8, [Nle^8, β-hIle^18,1-Nal^23] hPTH (1-34)-OH] (H-SVSEIQL[Nle]HNLGKHLNS[β3hI]ERVE[1Nal]LRKKLQDVHNF-OH), the EC50 [1] was 0.21 nM and the hPTHR-2/hPTHR-1 (Table 3) was 124.
With `CCCC[C@H](NC(=O)[C@H](CC(C)C)NC(=O)[C@H](CCC(N)=O)NC(=O)[C@@H](NC(=O)[C@H](CCC(=O)O)NC(=O)[C@H](CO)NC(=O)[C@@H](NC(=O)C(C)(C)N)C(C)C)[C@@H](C)CC)C(=O)N[C@@H](Cc1c[nH]cn1)C(=O)N[C@@H](CO)C(=O)N[C@@H](CC(C)C)C(=O)NCC(=O)N[C@@H](CCCCN)C(=O)N[C@@H](Cc1c[nH]cn1)C(=O)N[C@@H](CC(C)C)C(=O)N[C@@H](CCCCN)C(=O)N[C@@H](CO)C(=O)N[C@H](CC(=O)N[C@@H](CCC(=O)O)C(=O)N[C@@H](CCCNC(=N)N)C(=O)N[C@H](C(=O)N[C@@H](CCC(=O)O)C(=O)N[C@@H](Cc1cccc2ccccc12)C(=O)N[C@@H](CC(C)C)C(=O)N[C@@H](CCCNC(=N)N)C(=O)N[C@@H](CCCCN)C(=O)N[C@@H](CC(C)C)C(=O)N[C@@H](CC(C)C)C(=O)N[C@@H](CCC(N)=O)C(=O)N[C@@H](CCCNC(=N)N)C(=O)N[C@H](C(=O)N[C@@H](Cc1c[nH]cn1)C(=O)N[C@@H](CCC(=O)O)C(=O)N[C@@H](CCC(=O)O)C(N)=O)C(C)C)C(C)C)[C@@H](C)CC` [SEQ ID NO: 4, [Aib^1, Nle^8, Ser^10, Lys^16, β-hIle^18,1-Nal^23, Leu^27, Arg^30, Glu^33, Glu^34] hPTH (1-34)-NH2] (H-[Aib]VSEIQL[Nle]HSLGKHLKS[β3hI]ERVE[1Nal]LRKLLQRVHEE-NH2) the EC50 was 0.04 nM and the hPTHR-2/hPTHR-1 (Table 3) was 110.
Compound `CCCC[C@H](NC(=O)[C@H](CC(C)C)NC(=O)[C@H](CCC(N)=O)NC(=O)[C@@H](NC(=O)[C@H](CCC(=O)O)NC(=O)[C@H](CO)NC(=O)[C@@H](NC(=O)[C@@H](N)CO)C(C)C)[C@@H](C)CC)C(=O)N[C@@H](Cc1c[nH]cn1)C(=O)N[C@@H](CC(N)=O)C(=O)N[C@@H](CC(C)C)C(=O)NCC(=O)N[C@@H](CCCCN)C(=O)N[C@@H](Cc1c[nH]cn1)C(=O)N[C@@H](CC(C)C)C(=O)N[C@@H](CC(N)=O)C(=O)NCCC(=O)N[C@@H](CCOC)C(=O)N[C@@H](CCC(=O)O)C(=O)N[C@@H](CCCNC(=N)N)C(=O)N[C@H](C(=O)N[C@@H](CCC(=O)O)C(=O)N[C@@H](Cc1cccc2ccccc12)C(=O)N[C@@H](CC(C)C)C(=O)N[C@@H](CCCNC(=N)N)C(=O)N[C@@H](CCCCN)C(=O)N[C@@H](CC(C)C)C(=O)N[C@@H](CC(C)C)C(=O)N[C@@H](CCC(N)=O)C(=O)N[C@@H](CC(=O)O)C(=O)N[C@H](C(=O)N[C@@H](Cc1c[nH]cn1)C(=O)N[C@@H](CC(N)=O)C(=O)N[C@@H](Cc1ccccc1)C(N)=O)C(C)C)C(C)C` [SEQ ID NO: 16, [Nle^8, β-Ala^17, hSer(OMe)^18,1-Nal^23, Leu^27] hPTH (1-34)-NH2] (H-SVSEIQL[Nle]HNLGKHLN[βAla][hSer](Me)ERVE[1Nal]LRKLLQDVHNF-NH2) has an EC50 of 0.13 nM and a hPTHR-2/hPTHR-1 (Table 3) of 719.
`CCCC[C@H](NC(=O)[C@H](CC(C)C)NC(=O)[C@H](CCC(N)=O)NC(=O)[C@@H](NC(=O)[C@H](CCC(=O)O)NC(=O)[C@H](CO)NC(=O)[C@@H](NC(=O)[C@@H](N)CO)C(C)C)[C@@H](C)CC)C(=O)N[C@@H](Cc1c[nH]cn1)C(=O)N[C@@H](CC(N)=O)C(=O)N[C@@H](CC(C)C)C(=O)NCC(=O)N[C@@H](CCCCN)C(=O)N[C@@H](Cc1c[nH]cn1)C(=O)N[C@@H](CC(C)C)C(=O)N[C@@H](CC(N)=O)C(=O)N[C@@H](CO)C(=O)N[C@H](CC(=O)N[C@@H](CCC(=O)O)C(=O)N[C@@H](CCCNC(=N)N)C(=O)N[C@H](C(=O)N[C@@H](CCC(=O)O)C(=O)N[C@@H](Cc1ccc2ccccc2c1)C(=O)N[C@@H](CC(C)C)C(=O)N[C@@H](CCCNC(=N)N)C(=O)N[C@@H](CCCCN)C(=O)N[C@@H](CCCCN)C(=O)N[C@@H](CC(C)C)C(=O)N[C@@H](CCC(N)=O)C(=O)N[C@@H](CC(=O)O)C(=O)N[C@H](C(=O)N[C@@H](Cc1c[nH]cn1)C(=O)N[C@@H](CC(N)=O)C(=O)N[C@@H](Cc1ccccc1)C(N)=O)C(C)C)C(C)C)[C@@H](C)CC` [SEQ ID NO: 53, [Nle^8, β-hIle^18,2-Nal^23] hPTH (1-34)-NH2] (H-SVSEIQL[Nle]HNLGKHLNS[β3hI]ERVE[2Nal]LRKKLQDVHNF-NH2) was tested, and the EC50 (Table 4 comparison data, HEK-293 cells, CRE-luciferase, read-out: hPTHR-1 EC50) was 0.25 nM and the “Selectivity hPTHR-2/hPTHR-1” value (Table 4 comparison data) was 170.
In the case of `CCCC[C@H](NC(=O)[C@H](CC(C)C)NC(=O)[C@H](CCC(N)=O)NC(=O)[C@@H](NC(=O)[C@H](CCC(=O)O)NC(=O)[C@H](CO)NC(=O)[C@@H](NC(=O)[C@@H](N)CO)C(C)C)[C@@H](C)CC)C(=O)N[C@@H](Cc1c[nH]cn1)C(=O)N[C@@H](CC(N)=O)C(=O)N[C@@H](CC(C)C)C(=O)NCC(=O)N[C@@H](CCCCN)C(=O)N[C@@H](Cc1c[nH]cn1)C(=O)N[C@@H](CC(C)C)C(=O)N[C@@H](CC(N)=O)C(=O)N[C@@H](CO)C(=O)N[C@@H](C)CC(=O)N[C@@H](CCC(=O)O)C(=O)N[C@@H](CCCNC(=N)N)C(=O)N[C@H](C(=O)N[C@@H](CCC(=O)O)C(=O)N[C@@H](Cc1ccc2ccccc2c1)C(=O)N[C@@H](CC(C)C)C(=O)N[C@@H](CCCNC(=N)N)C(=O)N[C@@H](CCCCN)C(=O)N[C@@H](CCCCN)C(=O)N[C@@H](CC(C)C)C(=O)N[C@@H](CCC(N)=O)C(=O)N[C@@H](CC(=O)O)C(=O)N[C@H](C(=O)N[C@@H](Cc1c[nH]cn1)C(=O)N[C@@H](CC(N)=O)C(=O)N[C@@H](Cc1ccccc1)C(N)=O)C(C)C)C(C)C` [SEQ ID NO: 52, [Nle^8, β-hAla^18,2-Nal^23] hPTH (1-34)-NH2] (H-SVSEIQL[Nle]HNLGKHLNS[β3hA]ERVE[2Nal]LRKKLQDVHNF-NH2), the “Selectivity hPTHR-2/hPTHR-1” value (Table 4 comparison data) is reported as 215.
